Values belong to the compound of their own block, whether it stands above or below them.
Columns and labels:
Test in all cases: radiometric filter-binding kinase assay
[1] = biological target: BRSK1 (human) (UniProt Q8TDC3)
[2] = biological target: BRSK2 (human) (UniProt Q8IWQ3)
[3] = biological target: CAMKK2 (human) (UniProt Q96RR4)
[4] = biological target: DAPK1 (human) (UniProt P53355)
[5] = biological target: DYRK1A (human) (UniProt Q13627)
[6] = biological target: EEF2K (human) (UniProt O00418)
[7] = biological target: EPHB4 (human) (UniProt P54760)
[8] = biological target: ERBB4 (human) (UniProt Q15303)
[9] = biological target: FGFR1 (human) (UniProt P11362)
[10] = biological target: GSK3B (human) (UniProt P49841)
[11] = biological target: HIPK3 (human) (UniProt Q9H422)
[12] = biological target: IGF1R (human) (UniProt P08069)
[13] = biological target: IKBKE (human) (UniProt Q14164)
[14] = biological target: MAP2K2 (human) (UniProt P36507)
[15] = biological target: MAP2K6 (human) (UniProt P52564)
[16] = biological target: MAP3K5 (human) (UniProt Q99683)
[17] = biological target: MAPK12 (human) (UniProt P53778)
[18] = biological target: MAPK13 (human) (UniProt O15264)
[19] = biological target: MAPK3 (human) (UniProt P27361)
[20] = biological target: MAPK9 (human) (UniProt P45984)
[21] = biological target: MAPKAPK2 (human) (UniProt P49137)
[22] = biological target: MAPKAPK5 (human) (UniProt Q8IW41)
[23] = biological target: MARK1 (human) (UniProt Q9P0L2)
[24] = biological target: MELK (human) (UniProt Q14680)
[25] = biological target: MKNK1 (human) (UniProt Q9BUB5)
[26] = biological target: PAK7 (human) (UniProt Q9P286)
[27] = biological target: PHKG1 (human) (UniProt Q16816)
[28] = biological target: PIM1 (human) (UniProt P11309)
[29] = biological target: PIM2 (human) (UniProt Q9P1W9)
[30] = biological target: PIM3 (human) (UniProt Q86V86)
[31] = test system: PRKAA1 or PRKAA2 (rat); conditions: accession and sequence are those of the human protein
[32] = biological target: PRKACA (human) (UniProt P17612)
[33] = biological target: PRKCZ (human) (UniProt Q05513)
[34] = test system: SGK1 (human), O00141 [S422D]
[35] = biological target: STK3 (human) (UniProt Q13188)
[36] = biological target: SYK (human) (UniProt P43405)

Chain of MKNK1 (human) (Q9BUB5 whole entry, looked up): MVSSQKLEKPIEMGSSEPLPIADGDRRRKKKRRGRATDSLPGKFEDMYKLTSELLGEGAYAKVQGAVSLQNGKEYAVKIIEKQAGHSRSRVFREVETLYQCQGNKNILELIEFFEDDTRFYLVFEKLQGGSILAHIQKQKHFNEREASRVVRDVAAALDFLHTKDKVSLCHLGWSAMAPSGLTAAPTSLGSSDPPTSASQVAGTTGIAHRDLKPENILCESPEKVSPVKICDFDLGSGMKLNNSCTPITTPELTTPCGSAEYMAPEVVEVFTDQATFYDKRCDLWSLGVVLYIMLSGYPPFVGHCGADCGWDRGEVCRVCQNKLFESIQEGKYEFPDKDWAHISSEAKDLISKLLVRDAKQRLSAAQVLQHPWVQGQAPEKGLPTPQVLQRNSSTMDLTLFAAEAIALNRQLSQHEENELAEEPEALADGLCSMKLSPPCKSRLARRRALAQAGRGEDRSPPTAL
Chain of MAPKAPK2 (human) (P49137 whole entry, looked up): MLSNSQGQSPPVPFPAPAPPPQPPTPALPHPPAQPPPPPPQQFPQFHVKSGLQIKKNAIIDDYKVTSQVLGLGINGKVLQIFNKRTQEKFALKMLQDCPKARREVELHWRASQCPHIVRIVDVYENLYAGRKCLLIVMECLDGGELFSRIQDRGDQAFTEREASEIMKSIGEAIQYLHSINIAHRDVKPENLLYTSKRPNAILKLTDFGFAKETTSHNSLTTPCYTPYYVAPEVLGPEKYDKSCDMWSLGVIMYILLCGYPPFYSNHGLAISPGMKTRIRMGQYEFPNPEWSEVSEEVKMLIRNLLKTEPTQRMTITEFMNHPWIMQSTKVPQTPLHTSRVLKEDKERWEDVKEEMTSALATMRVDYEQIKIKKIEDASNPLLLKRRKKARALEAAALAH
Chain of GSK3B (human) (P49841 whole entry, looked up): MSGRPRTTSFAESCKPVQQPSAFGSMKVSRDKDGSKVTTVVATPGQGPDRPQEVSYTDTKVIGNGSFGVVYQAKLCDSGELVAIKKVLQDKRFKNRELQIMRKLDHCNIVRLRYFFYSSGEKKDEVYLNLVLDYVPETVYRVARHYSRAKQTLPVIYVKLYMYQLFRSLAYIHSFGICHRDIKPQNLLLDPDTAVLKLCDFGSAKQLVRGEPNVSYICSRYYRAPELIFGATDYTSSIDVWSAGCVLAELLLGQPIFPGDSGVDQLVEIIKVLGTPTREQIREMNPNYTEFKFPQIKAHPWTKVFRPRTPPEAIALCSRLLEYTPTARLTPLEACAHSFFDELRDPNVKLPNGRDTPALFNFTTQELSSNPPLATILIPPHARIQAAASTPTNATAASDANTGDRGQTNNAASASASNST
Chain of CAMKK2 (human) (Q96RR4 whole entry, looked up): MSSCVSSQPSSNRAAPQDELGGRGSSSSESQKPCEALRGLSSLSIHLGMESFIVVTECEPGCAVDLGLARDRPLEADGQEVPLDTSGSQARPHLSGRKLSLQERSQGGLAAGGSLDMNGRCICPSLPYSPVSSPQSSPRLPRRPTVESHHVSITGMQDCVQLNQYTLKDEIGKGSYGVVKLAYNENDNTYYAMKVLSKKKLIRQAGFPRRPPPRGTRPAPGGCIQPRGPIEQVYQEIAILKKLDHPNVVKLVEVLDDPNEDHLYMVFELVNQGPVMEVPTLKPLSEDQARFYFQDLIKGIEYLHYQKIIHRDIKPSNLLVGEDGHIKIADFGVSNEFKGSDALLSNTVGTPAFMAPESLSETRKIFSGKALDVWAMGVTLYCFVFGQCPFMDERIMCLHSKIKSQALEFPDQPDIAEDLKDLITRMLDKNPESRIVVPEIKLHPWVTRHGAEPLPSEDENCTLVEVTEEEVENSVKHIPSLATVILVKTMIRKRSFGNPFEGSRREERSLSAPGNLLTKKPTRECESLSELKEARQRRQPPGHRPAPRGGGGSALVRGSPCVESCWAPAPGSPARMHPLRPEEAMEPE
Chain of PHKG1 (human) (Q16816 whole entry, looked up): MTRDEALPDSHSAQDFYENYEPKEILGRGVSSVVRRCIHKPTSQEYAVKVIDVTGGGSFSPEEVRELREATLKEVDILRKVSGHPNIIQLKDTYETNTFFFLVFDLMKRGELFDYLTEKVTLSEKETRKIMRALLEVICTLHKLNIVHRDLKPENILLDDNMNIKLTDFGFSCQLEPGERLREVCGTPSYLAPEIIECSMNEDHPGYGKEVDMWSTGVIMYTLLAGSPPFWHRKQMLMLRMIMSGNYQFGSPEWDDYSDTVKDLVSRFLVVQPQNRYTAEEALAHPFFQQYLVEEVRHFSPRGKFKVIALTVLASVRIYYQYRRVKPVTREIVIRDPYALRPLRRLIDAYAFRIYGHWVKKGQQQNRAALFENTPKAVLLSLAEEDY
Chain of PRKCZ (human) (Q05513 whole entry, looked up): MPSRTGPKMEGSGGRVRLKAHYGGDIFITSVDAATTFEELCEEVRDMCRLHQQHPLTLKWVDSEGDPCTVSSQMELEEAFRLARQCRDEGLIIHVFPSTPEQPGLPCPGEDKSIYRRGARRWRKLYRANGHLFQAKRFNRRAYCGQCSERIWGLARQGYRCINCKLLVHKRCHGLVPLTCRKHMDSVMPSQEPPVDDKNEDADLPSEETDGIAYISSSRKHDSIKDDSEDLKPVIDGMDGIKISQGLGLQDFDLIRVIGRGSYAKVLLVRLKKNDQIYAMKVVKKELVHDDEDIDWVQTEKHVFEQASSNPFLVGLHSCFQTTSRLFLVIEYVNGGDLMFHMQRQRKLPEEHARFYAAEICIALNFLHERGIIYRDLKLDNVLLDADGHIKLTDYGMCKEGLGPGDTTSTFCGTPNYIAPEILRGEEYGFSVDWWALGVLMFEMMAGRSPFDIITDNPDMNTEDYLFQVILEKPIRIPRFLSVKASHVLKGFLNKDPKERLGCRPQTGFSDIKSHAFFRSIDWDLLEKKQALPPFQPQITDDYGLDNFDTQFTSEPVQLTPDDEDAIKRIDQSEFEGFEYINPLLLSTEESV
Chain of IKBKE (human) (Q14164 whole entry, looked up): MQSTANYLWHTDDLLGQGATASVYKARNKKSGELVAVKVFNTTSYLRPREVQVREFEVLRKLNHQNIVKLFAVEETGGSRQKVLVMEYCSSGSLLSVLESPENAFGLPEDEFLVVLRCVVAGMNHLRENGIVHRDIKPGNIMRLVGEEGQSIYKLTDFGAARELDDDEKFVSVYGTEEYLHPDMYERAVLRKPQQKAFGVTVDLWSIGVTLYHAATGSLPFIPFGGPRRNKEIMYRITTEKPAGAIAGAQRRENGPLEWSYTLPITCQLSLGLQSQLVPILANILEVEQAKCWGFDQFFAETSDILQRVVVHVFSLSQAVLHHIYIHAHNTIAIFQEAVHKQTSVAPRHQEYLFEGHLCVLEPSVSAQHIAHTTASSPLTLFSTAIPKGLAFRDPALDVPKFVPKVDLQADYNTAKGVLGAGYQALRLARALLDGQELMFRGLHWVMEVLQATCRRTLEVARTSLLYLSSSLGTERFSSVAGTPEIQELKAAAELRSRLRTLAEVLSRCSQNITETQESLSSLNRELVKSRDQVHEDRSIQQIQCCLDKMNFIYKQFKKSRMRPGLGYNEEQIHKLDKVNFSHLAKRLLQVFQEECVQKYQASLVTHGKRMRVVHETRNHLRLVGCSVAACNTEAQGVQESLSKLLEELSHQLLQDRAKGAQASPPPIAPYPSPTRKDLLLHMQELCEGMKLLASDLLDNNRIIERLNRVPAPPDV
Chain of MAPK12 (human) (P53778 whole entry, looked up): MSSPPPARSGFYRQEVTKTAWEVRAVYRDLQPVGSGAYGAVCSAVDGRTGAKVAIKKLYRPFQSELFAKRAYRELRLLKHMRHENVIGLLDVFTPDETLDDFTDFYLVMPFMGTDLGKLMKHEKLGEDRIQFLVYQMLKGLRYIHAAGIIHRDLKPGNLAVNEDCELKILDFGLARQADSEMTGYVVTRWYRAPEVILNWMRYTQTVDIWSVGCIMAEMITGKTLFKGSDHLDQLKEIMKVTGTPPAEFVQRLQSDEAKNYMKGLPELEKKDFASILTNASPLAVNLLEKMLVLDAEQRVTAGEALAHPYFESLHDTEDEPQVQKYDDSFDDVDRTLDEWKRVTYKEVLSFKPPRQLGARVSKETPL
Chain of MAP2K2 (human) (P36507 whole entry, looked up): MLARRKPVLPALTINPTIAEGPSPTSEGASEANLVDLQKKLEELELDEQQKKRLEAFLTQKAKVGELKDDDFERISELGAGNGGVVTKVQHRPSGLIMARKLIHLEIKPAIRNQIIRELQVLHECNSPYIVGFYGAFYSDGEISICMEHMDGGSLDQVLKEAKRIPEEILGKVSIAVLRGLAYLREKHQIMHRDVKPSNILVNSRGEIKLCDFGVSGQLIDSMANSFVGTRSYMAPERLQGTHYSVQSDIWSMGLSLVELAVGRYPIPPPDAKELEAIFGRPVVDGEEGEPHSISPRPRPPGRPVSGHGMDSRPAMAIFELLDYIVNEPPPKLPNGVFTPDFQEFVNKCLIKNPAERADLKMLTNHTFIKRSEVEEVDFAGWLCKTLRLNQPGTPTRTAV
Chain of MAPK9 (human) (P45984 whole entry, looked up): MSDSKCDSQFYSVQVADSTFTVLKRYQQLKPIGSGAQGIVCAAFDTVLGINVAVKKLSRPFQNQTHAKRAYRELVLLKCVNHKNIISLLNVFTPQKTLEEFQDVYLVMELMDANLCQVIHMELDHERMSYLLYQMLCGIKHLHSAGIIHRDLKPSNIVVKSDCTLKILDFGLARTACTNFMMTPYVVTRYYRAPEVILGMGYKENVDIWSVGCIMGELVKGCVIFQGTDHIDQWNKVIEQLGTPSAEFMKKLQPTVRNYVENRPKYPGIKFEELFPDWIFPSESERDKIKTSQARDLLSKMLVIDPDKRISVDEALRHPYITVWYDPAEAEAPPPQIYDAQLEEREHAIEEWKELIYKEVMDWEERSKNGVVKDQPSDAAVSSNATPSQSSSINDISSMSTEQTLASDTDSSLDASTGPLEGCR

residual activity ([1]; compound 1.0 µM): 97%
residual activity ([1]; compound 10.0 µM): 90%
residual activity ([2]; compound 1.0 µM): 99%
residual activity ([2]; compound 10.0 µM): 73%
residual activity ([3]; compound 1.0 µM): 106%
residual activity ([3]; compound 10.0 µM): 48%
residual activity ([4]; compound 1.0 µM): 102%
residual activity ([4]; compound 10.0 µM): 86%
residual activity ([5]; compound 1.0 µM): 85%
residual activity ([5]; compound 10.0 µM): 48%
residual activity ([6]; compound 1.0 µM): 97%
residual activity ([6]; compound 10.0 µM): 90%
residual activity ([7]; compound 1.0 µM): 101%
residual activity ([7]; compound 10.0 µM): 55%
residual activity ([8]; compound 1.0 µM): 106%
residual activity ([8]; compound 10.0 µM): 98%
residual activity ([9]; compound 1.0 µM): 105%
residual activity ([9]; compound 10.0 µM): 46%
residual activity ([10]; compound 1.0 µM): 90%
residual activity ([10]; compound 10.0 µM): 42%
residual activity ([11]; compound 1.0 µM): 89%
residual activity ([11]; compound 10.0 µM): 102%
residual activity ([12]; compound 1.0 µM): 86%
residual activity ([12]; compound 10.0 µM): 79%
residual activity ([13]; compound 10.0 µM): 109%
residual activity ([14]; compound 1.0 µM): 93%
residual activity ([14]; compound 10.0 µM): 74%
residual activity ([15]; compound 1.0 µM): 109%
residual activity ([15]; compound 10.0 µM): 99%
residual activity ([16]; compound 1.0 µM): 106%
residual activity ([16]; compound 10.0 µM): 96%
residual activity ([17]; compound 1.0 µM): 93%
residual activity ([17]; compound 10.0 µM): 94%
residual activity ([18]; compound 1.0 µM): 116%
residual activity ([18]; compound 10.0 µM): 97%
residual activity ([19]; compound 1.0 µM): 107%
residual activity ([19]; compound 10.0 µM): 125%
residual activity ([20]; compound 1.0 µM): 106%
residual activity ([20]; compound 10.0 µM): 96%
residual activity ([21]; compound 1.0 µM): 98%
residual activity ([22]; compound 1.0 µM): 96%
residual activity ([22]; compound 10.0 µM): 62%
residual activity ([23]; compound 1.0 µM): 93%
residual activity ([23]; compound 10.0 µM): 67%
residual activity ([24]; compound 1.0 µM): 71%
residual activity ([24]; compound 10.0 µM): 44%
residual activity ([25]; compound 1.0 µM): 97%
residual activity ([25]; compound 10.0 µM): 77%
residual activity ([26]; compound 1.0 µM): 100%
residual activity ([26]; compound 10.0 µM): 54%
residual activity ([27]; compound 1.0 µM): 108%
residual activity ([27]; compound 10.0 µM): 62%
residual activity ([28]; compound 1.0 µM): 96%
residual activity ([28]; compound 10.0 µM): 87%
residual activity ([29]; compound 1.0 µM): 98%
residual activity ([29]; compound 10.0 µM): 92%
residual activity ([30]; compound 1.0 µM): 111%
residual activity ([30]; compound 10.0 µM): 68%
residual activity ([31]; compound 1.0 µM): 103%
residual activity ([31]; compound 10.0 µM): 86%
residual activity ([32]; compound 1.0 µM): 100%
residual activity ([32]; compound 10.0 µM): 102%
residual activity ([33]; compound 1.0 µM): 104%
residual activity ([33]; compound 10.0 µM): 104%
residual activity ([34]; compound 1.0 µM): 109%
residual activity ([34]; compound 10.0 µM): 107%
residual activity ([35]; compound 1.0 µM): 90%
residual activity ([35]; compound 10.0 µM): 53%
residual activity ([36]; compound 1.0 µM): 102%
residual activity ([36]; compound 10.0 µM): 106%
SMILES: NC(=O)c1c(NC(=O)C2CC2)sc2c1CCCC2

residual activity ([1]; compound 1.0 µM): 107%
residual activity ([1]; compound 10.0 µM): 58%
residual activity ([2]; compound 1.0 µM): 92%
residual activity ([2]; compound 10.0 µM): 46%
residual activity ([3]; compound 1.0 µM): 106%
residual activity ([3]; compound 10.0 µM): 57%
residual activity ([4]; compound 1.0 µM): 68%
residual activity ([4]; compound 10.0 µM): 46%
residual activity ([5]; compound 1.0 µM): 99%
residual activity ([5]; compound 10.0 µM): 80%
residual activity ([6]; compound 1.0 µM): 90%
residual activity ([6]; compound 10.0 µM): 56%
residual activity ([7]; compound 1.0 µM): 90%
residual activity ([7]; compound 10.0 µM): 86%
residual activity ([8]; compound 1.0 µM): 71%
residual activity ([8]; compound 10.0 µM): 67%
residual activity ([9]; compound 1.0 µM): 97%
residual activity ([9]; compound 10.0 µM): 72%
residual activity ([10]; compound 1.0 µM): 80%
residual activity ([10]; compound 10.0 µM): 73%
residual activity ([11]; compound 1.0 µM): 129%
residual activity ([11]; compound 10.0 µM): 79%
residual activity ([12]; compound 1.0 µM): 86%
residual activity ([12]; compound 10.0 µM): 35%
residual activity ([13]; compound 1.0 µM): 87%
residual activity ([13]; compound 10.0 µM): 96%
residual activity ([14]; compound 1.0 µM): 107%
residual activity ([14]; compound 10.0 µM): 77%
residual activity ([15]; compound 1.0 µM): 76%
residual activity ([15]; compound 10.0 µM): 83%
residual activity ([16]; compound 1.0 µM): 102%
residual activity ([16]; compound 10.0 µM): 83%
residual activity ([17]; compound 1.0 µM): 94%
residual activity ([17]; compound 10.0 µM): 72%
residual activity ([18]; compound 1.0 µM): 85%
residual activity ([18]; compound 10.0 µM): 68%
residual activity ([19]; compound 1.0 µM): 85%
residual activity ([19]; compound 10.0 µM): 80%
residual activity ([20]; compound 1.0 µM): 83%
residual activity ([20]; compound 10.0 µM): 71%
residual activity ([21]; compound 1.0 µM): 115%
residual activity ([21]; compound 10.0 µM): 95%
residual activity ([22]; compound 1.0 µM): 90%
residual activity ([22]; compound 10.0 µM): 88%
residual activity ([23]; compound 1.0 µM): 88%
residual activity ([23]; compound 10.0 µM): 95%
residual activity ([24]; compound 1.0 µM): 88%
residual activity ([24]; compound 10.0 µM): 29%
residual activity ([25]; compound 1.0 µM): 101%
residual activity ([25]; compound 10.0 µM): 90%
residual activity ([26]; compound 1.0 µM): 84%
residual activity ([26]; compound 10.0 µM): 75%
residual activity ([27]; compound 1.0 µM): 77%
residual activity ([27]; compound 10.0 µM): 59%
residual activity ([28]; compound 1.0 µM): 63%
residual activity ([28]; compound 10.0 µM): 18%
residual activity ([29]; compound 1.0 µM): 34%
residual activity ([29]; compound 10.0 µM): 12%
residual activity ([30]; compound 1.0 µM): 56%
residual activity ([30]; compound 10.0 µM): 27%
residual activity ([31]; compound 1.0 µM): 85%
residual activity ([31]; compound 10.0 µM): 50%
residual activity ([32]; compound 1.0 µM): 83%
residual activity ([32]; compound 10.0 µM): 95%
residual activity ([33]; compound 1.0 µM): 88%
residual activity ([33]; compound 10.0 µM): 76%
residual activity ([34]; compound 1.0 µM): 96%
residual activity ([34]; compound 10.0 µM): 69%
residual activity ([35]; compound 1.0 µM): 83%
residual activity ([35]; compound 10.0 µM): 34%
residual activity ([36]; compound 1.0 µM): 88%
residual activity ([36]; compound 10.0 µM): 81%
SMILES: N#Cc1c(C2CCNCC2)cc(-c2c(O)cccc2OCC2CC2)nc1N

Reference: the kinase profiling compilation of Christmann-Franck et al. (2016)
